Data on four molecules can be found in article PMC7463913, “The Interaction of Fluorinated Glycomimetics with DC-SIGN: Multiple Binding Modes Disentangled by the Combination of NMR Methods and MD Simulations” (Pharmaceuticals, 2020).

Test [1] concerns the target T1, DC-SIGN (ECD) (Homo sapiens, UniProt Q9NNX6).
T1 construct: DC-SIGN full extracellular domain (ECD, residues 70-404, Thermo Fischer Scientific); made in house
T1 sequence (Q9NNX6 70-404): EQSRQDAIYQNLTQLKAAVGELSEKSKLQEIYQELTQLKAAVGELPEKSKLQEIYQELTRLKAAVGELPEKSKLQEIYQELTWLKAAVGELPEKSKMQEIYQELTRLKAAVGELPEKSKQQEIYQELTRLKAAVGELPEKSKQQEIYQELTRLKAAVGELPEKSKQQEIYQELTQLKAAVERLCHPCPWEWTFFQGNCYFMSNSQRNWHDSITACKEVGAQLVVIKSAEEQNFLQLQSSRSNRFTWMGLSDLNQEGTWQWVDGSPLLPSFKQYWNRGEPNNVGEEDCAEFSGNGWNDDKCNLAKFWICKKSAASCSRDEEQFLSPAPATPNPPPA
Nature of the test: competitive 19F-R2 filtered NMR experiments (spy molecule 6-F-ManαOMe). Format: binding. Conditions: non-linear least squares fitting; [6-F-ManαOMe] 400 µM, [DC-SIGN (CRDs)] 10 µM; 298 K, pH 8.0. From the text: In order to gain insights into the effects that the different fluorination patterns may have in the binding event, the affinities of 1b, the natural analogue of 1, as well as 1c and 1d, two partially fluorinated trisaccharides, were also estimated. (Table 2, Figure S1).
(§1) For KD estimation of 6-deoxy-6-F-Man (the spy-molecule), the free evolution delay was set to an optimized value τ=1 ms , after using relaxation dispersion experiments to assure a negligible chemical exchange contribution to R2,obs (Figure S1a). The KI of 1, 1b-d, 2, and 3 with DC-SIGN (ECD) was determined by titration experiments in a competitive fashion. Increasing amounts of the competitor molecules (compounds 1, 1b-d, 2, and 3) were added to a solution mixture of the spy molecule and the protein in each case, calculating the R2,obs of the spy molecule at each competitor concentration while the ratio [Spy-molecule]/[Protein] is fixed (40:1) (Figure S1c).
(§2) 19F-R2 filtered experiments
The KD of compounds 1, 1b-d, 2 and 3 was estimated applying a 19F-R2 filtered approach. 6-F-ManαOMe, which weakly binds to DC-SIGN, was selected as the spy molecule. Relaxation rates R2 were determined employing a CPMG pulse sequence, by fitting the observed 19F signal intensity to the exponential decay curve:
ܫ(ݐ) = ܫ଴݁ି௧ோమ = ܫ଴݁ି௡ଶఛோమ (1) where ܫ(ݐ) refers to intensity at time ݐ, ܫ଴ is intensity at ݐ = 0, and ܴଶ is the transversal relaxation rate (ܴଶ = 1/ܶଶ).
In the limit of fast-exchange where the exchange contribution to the observed transversal relaxation rate ܴଶ,௢௕௦ is insignificant (Figure S1, a)), the following equations apply:
ܴଶ,௢௕௦ = ܴଶ,௙ + ൫ܴଶ,௕ − ܴଶ,௙൯݌௕ (2)
(§3) [ܲ]் + [ܮ]் + ܭ஽ − ඥ([ܲ]் + [ܮ]் + ܭ஽)ଶ − 4[ܲ]்[ܮ]் (3) where [ܲ]் and [ܮ]் are the total protein and ligand concentrarion respectively, [ܴ]ଶ,௙ and [ܴ]ଶ,௕ are the relaxation rates in the free and bound states, ݌௕ is the fraction of bound ligand and ܭ஽ the dissociation constant of the protein-ligand complex. [ܴ]ଶ,௙ of 6-F-ManαOMe was measured in absence of the lectin, and Equation 2 was used to estimate ܭ஽and [ܴ]ଶ,௕ for the […]
Then, ܭூ of compounds 1, 1b-d, 2 and 3 was measured in a competitive manner. ܴଶ,௢௕௦ of 6-F-ManαOMe (spy molecule) in solution with DC-SIGN ECD was monitored at 5 different competitor concentrations ([ܫ]) in each case with a fixed [ܲ]்/[ܮ]் ratio (Figure S1, c)), to derive ܭூ by fitting to Equation 2 with ݌௕ as defined in Equations (4) and (5) (Table 2):
݌௕ = 3ܭ + 2 cos൫ߠൗ ൯ √ܽଶ − 3ܾ − ܽ (4)
ߠ = cos ൬ ଶඥ(௔మିଷ௕)య ൰, ܽ = ܭ஽ + ܭூ + [ܮ]் + [ܫ]் − [ܲ]், ܾ = ([ܫ]் − [ܲ]்)ܭ஽ + ([ܮ]் − [ܲ]்)ܭ஽ + ܭூܭ஽, ܿ = −ܭூܭ஽[ܲ]்
Figure S1. 19F-R2 filtered experiments. a) Relaxation dispersion experiment for 6-F-ManαOMe (the spy molecule). R2,obs of the 19F nucleus is measured for different values of ωCPMG. Ligand and protein sample concentrations were: [6-F-ManαOMe] = 400 µM, [DC-SIGN (CRDs)] = 10 µM (counting concentration of CRDs, i.e, 4 CRDs per DC-SIGN ECD tetramer). For ωCPMG > 1000 s-1, there is virtually negligible exchange contribution to R2. Therefore, all the subsequent R2 filtered experiments were carried out with τCPMG = 1/ωCPMG = 1 ms. b) KD determination of 6-F-ManαOMe with DC-SIGN. R2,obs was measured for increasing amounts of [6-F-ManαOMe]/[DC-SIGN (CRDs)] (blue dots). KD and R2,b were obtained from fitting to Equation 2, which is valid in the fast-exchange regime (Rex = 0) [39a]. The predicted values at each [6-F-ManαOMe]/[DC-SIGN (CRDs)] are shown as red stars for comparison c) Titration curves showing the variation in 19F-R2,obs of the spy molecule 6-F-ManαOMe, when increasing amounts of the competitors (I) 1, 1b-d, 2 and 3 are added to a mixture [6-F-ManαOMe] = 400 µM, [DC-SIGN (CRDs)] = 10 µM. […]

The target in test [2] is T1, DC-SIGN (ECD). Nature of the test: 19F-R2 filtered NMR KD determination of the spy molecule. It counts as binding. Conditions: spy molecule with DC-SIGN; fast-exchange regime, τCPMG 1 ms. On the procedure:
as §1, §2
The KD of compounds 1, 1b-d, 2 and 3 was estimated applying a 19F-R2 filtered approach. […] Relaxation rates R2 were determined employing a CPMG pulse sequence, by fitting the observed 19F signal intensity to the exponential decay curve: […]
as §3

Turning to `CO[C@H]1O[C@H](CO[C@H]2O[C@H](CO)[C@@H](O)[C@H](O)[C@@H]2O)[C@@H](O)[C@H](O[C@H]2O[C@H](CO)[C@@H](O)[C@H](O)[C@@H]2O)[C@@H]1O` [1b, reference compound], at DC-SIGN (ECD) [1], the inhibition constant Ki amounted to 1100 µM. In other words, the millimolar range.
In the case of `CO[C@H]1O[C@H](CO[C@H]2O[C@H](CO)[C@@H](O)[C@H](O)[C@@H]2O)[C@@H](O)[C@H](O[C@H]2O[C@H](CO)[C@@H](O)[C@H](O)[C@@H]2O)[C@@H]1F` [1c], the Ki on DC-SIGN (ECD) [1] is 1000 µM.
The same measure, in the same setting: as for `CO[C@H]1O[C@H](CO[C@H]2O[C@H](CO)[C@@H](O)[C@H](O)[C@@H]2O)[C@@H](O)[C@H](O[C@H]2O[C@H](CO)[C@@H](O)[C@H](O)[C@@H]2F)[C@@H]1O` [1d], the figure is 1100 µM.
Regarding `CO[C@H]1O[C@H](CF)[C@@H](O)[C@H](O)[C@@H]1O` [6-F-ManαOMe], at DC-SIGN (ECD) [2], the Kd was found to be 1300 µM.
